# Measurements: patent US20090143279A1 (priority 2007, published 2009)
# Like-named read-outs stand apart in the source and are kept apart here.
# How the values were obtained:
# [1] = test system: cellular dehydrogenase activity; conditions: for MTT (composite Z-score): normalized score vs mock-treated (DMSO) wells
# mtOXPHOS transcripts = type: cell-based, mouse; conditions: for mitoOX (composite Z-score): normalized score vs mock-treated (DMSO) wells
# C2C12 myotubes = conditions: for Viability (composite Z-score): normalized score vs mock-treated (DMSO) wells
# [2] = test system: mitochondrial membrane potential; type: cell-based, mouse; conditions: for ΔΨm (composite Z-score): normalized score vs mock-treated (DMSO) wells
# OXPHOS gene expression = type: cell-based, mouse; conditions: for GE-HTS (composite Z-score): normalized score vs mock-treated (DMSO) wells
# cytochrome c = type: cell-based, mouse; conditions: for cyt c (composite Z-score): normalized score vs mock-treated (DMSO) wells
# reactive oxygen species = type: cell-based, mouse; conditions: for ROS (composite Z-score): normalized score vs mock-treated (DMSO) wells
# nuOXPHOS transcripts = type: cell-based, mouse; conditions: for nucOX (composite Z-score): normalized score vs mock-treated (DMSO) wells
# [3] = composite Z-score vs DMSO, Conc 20 μM
# [4] = 14.44 μM, composite Z-score vs DMSO
# [5] = 20 μM, composite Z-score vs DMSO
# [6] = normalized composite Z-score vs mock-treated (DMSO) wells, Conc 20 μM
# [7] = composite Z-score vs mock-treated (DMSO) wells, concentration of each compound in μM
smiles,measurement,setting,value
CC[C@H]1OC(=O)[C@H](C)[C@@H](O[C@H]2C[C@@](C)(OC)[C@@H](O)[C@H](C)O2)[C@H](C)[C@@H](O[C@@H]2O[C@H](C)C[C@H](N(C)C)[C@H]2O)[C@](C)(OC)C[C@@H](C)C(=O)[C@H](C)[C@@H](O)[C@]1(C)O [clarithromycin],MTT,[1]; [3],−1.086
same,mitoOX,mtOXPHOS transcripts; [3],−1.928
same,Viability,C2C12 myotubes; [3],−0.763
same,ΔΨm,[2]; [3],0.434
same,GE-HTS,OXPHOS gene expression; [3],−2.161
same,cyt c,cytochrome c; [3],−1.095
same,ROS,reactive oxygen species; [3],0.293
same,nucOX,nuOXPHOS transcripts; [3],−2.046
CC(C)(C)NCC(O)c1cc(Cl)c(N)c(Cl)c1 (stereo not drawn) [clenbuterol],MTT,[1]; [4],−1.330
same,mitoOX,mtOXPHOS transcripts; [4],0.011
same,Viability,C2C12 myotubes; [4],0.134
same,ΔΨm,[2]; [4],−1.139
same,GE-HTS,OXPHOS gene expression; [4],0.054
same,cyt c,cytochrome c; [4],−0.261
same,ROS,reactive oxygen species; [4],0.914
same,nucOX,nuOXPHOS transcripts; [4],0.063
C[N+]12CCC(CC1)C(OC(=O)C(O)(c1ccccc1)c1ccccc1)C2 (stereo not drawn) [clidinium],MTT,[1],−2.250
same,MTT,[1]; [5],−1.393
same,mitoOX,mtOXPHOS transcripts,−0.903
same,mitoOX,mtOXPHOS transcripts; [5],−0.602
same,Viability,C2C12 myotubes,0.172
same,Viability,C2C12 myotubes; [5],−0.084
same,ΔΨm,[2],−0.715
same,ΔΨm,[2]; [5],−0.772
same,GE-HTS,OXPHOS gene expression,−0.462
same,GE-HTS,OXPHOS gene expression; [5],−0.556
same,cyt c,cytochrome c,0.176
same,cyt c,cytochrome c; [5],−0.062
same,ROS,reactive oxygen species,1.870
same,ROS,reactive oxygen species; [5],1.625
same,nucOX,nuOXPHOS transcripts,−0.202
same,nucOX,nuOXPHOS transcripts; [5],−0.503
COC(=O)[C@H](c1ccccc1Cl)N1CCc2sccc2C1 [clopidogrel],MTT,[1],−1.447
same,mitoOX,mtOXPHOS transcripts,−1.441
same,Viability,C2C12 myotubes,−1.134
same,ΔΨm,[2],−0.698
same,GE-HTS,OXPHOS gene expression,−1.470
same,cyt c,cytochrome c,0.410
same,ROS,reactive oxygen species,−0.196
same,nucOX,nuOXPHOS transcripts,−1.328
CC(=O)OC1CCC23CC1(C)CCC2C(C)(C)CC3OC(C)=O (stereo not drawn) [clovanediol diacetate],MTT,[1]; [6],−0.708
same,mitoOX,mtOXPHOS transcripts; [6],−0.026
same,Viability,C2C12 myotubes; [6],−0.119
same,ΔΨm,[2]; [6],−0.599
same,GE-HTS,OXPHOS gene expression; [6],−0.020
same,cyt c,cytochrome c; [6],0.384
same,ROS,reactive oxygen species; [6],−0.318
same,nucOX,nuOXPHOS transcripts; [6],0.007
Cc1onc(-c2ccccc2Cl)c1C(=O)N[C@@H]1C(=O)N2[C@@H]1SC(C)(C)[C@@H]2C(=O)O [cloxacillin],MTT,[1]; [5],−1.769
same,mitoOX,mtOXPHOS transcripts; [5],−0.508
same,Viability,C2C12 myotubes; [5],−0.395
same,ΔΨm,[2]; [5],−0.339
same,GE-HTS,OXPHOS gene expression; [5],−0.568
same,cyt c,cytochrome c; [5],0.459
same,ROS,reactive oxygen species; [5],0.259
same,nucOX,nuOXPHOS transcripts; [5],−0.506
C/C1=C2/[N-][C@H]([C@H](CC(N)=O)[C@@]2(C)CCC(=O)NC[C@@H](C)OP(=O)([O-])O[C@H]2[C@@H](O)[C@@H](n3cnc4cc(C)c(C)cc43)O[C@@H]2CO)[C@]2(C)N=C(/C(C)=C3N=C(/C=C4N=C1[C@@H](CCC(N)=O)C\4(C)C)[C@@H](CCC(N)=O)[C@]\3(C)CC(N)=O)[C@@H](CCC(N)=O)[C@]2(C)CC(N)=O.[Co] [cobalamine],MTT,[1]; [7],−1.369
same,mitoOX,mtOXPHOS transcripts; [7],−0.393
same,Viability,C2C12 myotubes; [7],−0.821
same,ΔΨm,[2]; [7],0.097
same,GE-HTS,OXPHOS gene expression; [7],−0.402
same,cyt c,cytochrome c; [7],−0.617
same,ROS,reactive oxygen species; [7],2.944
same,nucOX,nuOXPHOS transcripts; [7],−0.373
COC1=C(OC)C(=O)C(C/C=C(\C)CC/C=C(\C)CC/C=C(\C)CC/C=C(\C)CC/C=C(\C)CC/C=C(\C)CC/C=C(\C)CC/C=C(\C)CC/C=C(\C)CCC=C(C)C)=C(C)C1=O [coenzyme Q10],MTT (composite Z-score),[1]; Conc 20 μM,−1.758
same,mitoOX (composite Z-score),mtOXPHOS transcripts; Conc 20 μM,0.226
same,Viability (composite Z-score),C2C12 myotubes; Conc 20 μM,0.166
same,ΔΨm (composite Z-score),[2]; Conc 20 μM,0.920
same,GE-HTS (composite Z-score),OXPHOS gene expression; Conc 20 μM,0.366
same,cyt c (composite Z-score),cytochrome c; Conc 20 μM,0.636
same,ROS (composite Z-score),reactive oxygen species; Conc 20 μM,1.179
same,nucOX (composite Z-score),nuOXPHOS transcripts; Conc 20 μM,0.391
COc1cc2c(c(OC)c1OC)-c1ccc(=O)c(O)cc1[C@@H](NC(C)=O)CC2 [colchiceine],MTT,[1]; [3],−3.186
same,mitoOX,mtOXPHOS transcripts; [3],1.192
same,Viability,C2C12 myotubes; [3],−0.333
same,ΔΨm,[2]; [3],−0.812
same,GE-HTS,OXPHOS gene expression; [3],1.832
same,cyt c,cytochrome c; [3],−0.908
same,ROS,reactive oxygen species; [3],0.469
same,nucOX,nuOXPHOS transcripts; [3],1.935
COc1cc(/C=C/CO)ccc1O [coniferyl alcohol],MTT (composite Z-score),[1]; Conc 20 μM,−1.094
same,mitoOX (composite Z-score),mtOXPHOS transcripts; Conc 20 μM,−0.251
same,Viability (composite Z-score),C2C12 myotubes; Conc 20 μM,−0.771
same,ΔΨm (composite Z-score),[2]; Conc 20 μM,−0.719
same,GE-HTS (composite Z-score),OXPHOS gene expression; Conc 20 μM,−0.593
same,cyt c (composite Z-score),cytochrome c; Conc 20 μM,0.296
same,ROS (composite Z-score),reactive oxygen species; Conc 20 μM,−0.450
same,nucOX (composite Z-score),nuOXPHOS transcripts; Conc 20 μM,−0.688
C[C@]12CCC(=O)C=C1CC[C@@H]1[C@@H]2C(=O)C[C@@]2(C)[C@H]1CC[C@]2(O)C(=O)CO [cortisone],MTT,[1]; [3],−0.146
same,mitoOX,mtOXPHOS transcripts; [3],−0.830
same,Viability,C2C12 myotubes; [3],0.644
same,ΔΨm,[2]; [3],−0.232
same,GE-HTS,OXPHOS gene expression; [3],−0.428
same,cyt c,cytochrome c; [3],−0.078
same,ROS,reactive oxygen species; [3],0.527
same,nucOX,nuOXPHOS transcripts; [3],−0.165
